Assay: xn = mol fraction of the nth substance listed
Settings: Liquid, x1 = 1; for mass density: Vibrating tube method; for viscosity: Concentric cylinders viscometry

CCC(C)O (stereo unspecified) [butan-2-ol] + Cc1ccc(C)c(C)c1
Settings	mass density [kg/m3]	viscosity [mPa·s]
273.15 K, 100 kPa	822.3	–
273.15 K, 1000 kPa	822.7	–
273.15 K, 2000 kPa	823.4	–
273.15 K, 5000 kPa	825.4	–
273.15 K, 10000 kPa	828.7	–
273.15 K, 15000 kPa	831.8	–
273.15 K, 20000 kPa	834.7	–
273.15 K, 30000 kPa	840.4	–
273.15 K, 40000 kPa	845.7	–
273.15 K, 50000 kPa	850.7	–
273.15 K, 60000 kPa	855.4	–
273.15 K, 70000 kPa	859.9	–
273.15 K, 80000 kPa	864.3	–
273.15 K, 90000 kPa	868.4	–
273.15 K, 100000 kPa	872.4	–
273.15 K, 110000 kPa	876.3	–
273.15 K, 120000 kPa	879.9	–
273.15 K, 130000 kPa	883.5	–
273.15 K, 140000 kPa	887.2	–
293.15 K, 100 kPa	806.3	3.725
293.15 K, 1000 kPa	807	–
293.15 K, 2000 kPa	807.8	–
293.15 K, 5000 kPa	810	–
293.15 K, 10000 kPa	813.6	–
293.15 K, 15000 kPa	817	–
293.15 K, 20000 kPa	820.2	–
293.15 K, 30000 kPa	826.5	–
293.15 K, 40000 kPa	832.3	–
293.15 K, 50000 kPa	837.7	–
293.15 K, 60000 kPa	842.8	–
293.15 K, 70000 kPa	847.7	–
293.15 K, 80000 kPa	852.3	–
293.15 K, 90000 kPa	856.7	–
293.15 K, 100000 kPa	860.9	–
293.15 K, 110000 kPa	865	–
293.15 K, 120000 kPa	868.8	–
293.15 K, 130000 kPa	872.7	–
293.15 K, 140000 kPa	876.3	–
303.15 K, 100 kPa	–	2.555
313.15 K, 100 kPa	789.4	1.814
313.15 K, 1000 kPa	790.1	–
313.15 K, 2000 kPa	791	–
313.15 K, 5000 kPa	793.5	–
313.15 K, 10000 kPa	797.5	–
313.15 K, 15000 kPa	801.4	–
313.15 K, 20000 kPa	805.1	–
313.15 K, 30000 kPa	811.9	–
313.15 K, 40000 kPa	818.3	–
313.15 K, 50000 kPa	824.1	–
313.15 K, 60000 kPa	829.6	–
313.15 K, 70000 kPa	835	–
313.15 K, 80000 kPa	839.9	–
313.15 K, 90000 kPa	844.6	–
313.15 K, 100000 kPa	849	–
313.15 K, 110000 kPa	853.3	–
313.15 K, 120000 kPa	857.5	–
313.15 K, 130000 kPa	861.5	–
313.15 K, 140000 kPa	865.4	–
323.15 K, 100 kPa	–	1.331
333.15 K, 100 kPa	770.7	1.007
333.15 K, 1000 kPa	771.6	–
333.15 K, 2000 kPa	772.6	–
333.15 K, 5000 kPa	775.5	–
333.15 K, 10000 kPa	780.1	–
333.15 K, 15000 kPa	784.4	–
333.15 K, 20000 kPa	788.6	–
333.15 K, 30000 kPa	796.2	–
333.15 K, 40000 kPa	803.2	–
333.15 K, 50000 kPa	809.6	–
333.15 K, 60000 kPa	815.7	–
333.15 K, 70000 kPa	821.4	–
333.15 K, 80000 kPa	826.7	–
333.15 K, 90000 kPa	831.8	–
333.15 K, 100000 kPa	836.6	–
333.15 K, 110000 kPa	841.2	–
333.15 K, 120000 kPa	845.5	–
333.15 K, 130000 kPa	849.8	–
333.15 K, 140000 kPa	853.9	–

Source: the NIST ThermoML archive (doi:10.1016/j.jct.2017.03.006)
